In patent US20250018047A1, “METHODS AND COMPOSITIONS FOR TARGETED PROTEIN DEGRADATION” (Ranok Therapeutics (Hangzhou) Co. Ltd., priority 2021, published 2025):

Experiments:
[1] = tested on: A-427 human lung carcinoma; assay: CellTiter-Glo cancer cell line proliferation assay, A-427; type: cell-based; details: Homo sapiens, A-427, 24 hr, read-out: A427 at 24 hrs, IC50
Description: (§1) Cell lines were cultured according to ATCC and recommendations.
(§2) CellTiter-Glo® Reagent Cancer Cell Line Proliferation Assays
(§3) Cells were plated in 96-well tissue culture plates at 4,000 cells/well and incubated at 37° C./5% CO2 for 24 hr in 100 μl of media. […] Cells were then treated with test compounds at various concentrations with a final concentration of 0.5% DMSO/well, and then incubated at 37° C./5% CO2 for 24 hr. 100 μl of CellTiter-Glo® Reagent (Promega Corporation, Madison, WI) was added to each well and processed according manufacturer's protocol. Results were analyzed and IC50-values were calculated in GraphPad 7 software.

KRAS(G12D)/SOS1 = molecular target: T1, KRAS(G12D)/SOS1 (Homo sapiens, UniProt P01116, G12D); assay: KRAS(G12D)/SOS1 homogeneous time-resolved fluorescence (HTRF) assay; type: binding; details: absence of GTP, 4° C. for 3 hr
T1 construct: purchased Cisbio 63ADK000CB16PEG
T1 sequence (P01116 1-188 isoform P01116-2 G12D): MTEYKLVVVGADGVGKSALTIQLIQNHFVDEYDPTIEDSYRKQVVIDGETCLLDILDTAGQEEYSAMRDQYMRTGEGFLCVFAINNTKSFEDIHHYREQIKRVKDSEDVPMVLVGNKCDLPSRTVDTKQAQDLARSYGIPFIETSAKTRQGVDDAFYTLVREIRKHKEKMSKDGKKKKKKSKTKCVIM
Description: The test compound was mixed and incubated with reaction components, incubated in a sealed plate at 4° C. for 3 hr and fluorescence was measured using a PerkinElmer Envision plate reader.

[2] = tested on: AsPC-1 human pancreatic adenocarcinoma; assay: CellTiter-Glo cancer cell line proliferation assay, AsPC-1; type: cell-based; details: Homo sapiens, ASPC1, 24 hr
Description: as §1, §2, §3

SMILES | IC50 [1] | IC50 (KRAS(G12D)/SOS1) | IC50 [2]
CN1C[C@H](N2CCN(CC3CCN(c4ccc5c(c4)C(=O)N(C4CCC(=O)NC4=O)C5=O)CC3)CC2)C[C@@H]1COc1nc(N2CC3CCC(C2)N3)c2cnc(-c3cc(O)cc4ccccc34)c(F)c2n1 (some centres unmarked) [Compound 34] | > 1000 nM | < 100 nM | > 1000 nM
CN1C[C@H](N2CCN(CC3CCN(c4cccc5c4C(=O)N(C4CCC(=O)NC4=O)C5=O)CC3)CC2)C[C@@H]1COc1nc(N2CC3CCC(C2)N3)c2cnc(-c3cc(O)cc4ccccc34)c(F)c2n1 (some centres unmarked) [Compound 35] | > 1000 nM | < 100 nM | > 1000 nM
CN1C[C@H](N2CCN(Cc3ccc4c(c3)C(=O)N(C3CCC(=O)NC3=O)C4=O)CC2)C[C@@H]1COc1nc(N2CC3CCC(C2)N3)c2cnc(-c3cc(O)cc4ccccc34)c(F)c2n1 (some centres unmarked) [Compound 36] | > 1000 nM | < 100 nM | > 1000 nM
CN1C[C@H](N2CCC(C(=O)Nc3ccc4c(c3)CN(C3CCC(=O)NC3=O)C4=O)CC2)C[C@@H]1COc1nc(N2CC3CCC(C2)N3)c2cnc(-c3cccc4cccc(Cl)c34)c(F)c2n1 (some centres unmarked) [Compound 49] |  | 100 to 1000 nM | 
O=C1CCC(N2Cc3cc(N4CCC(CN5CCN(CC6(COc7nc(N8CC9CCC(C8)N9)c8cnc(-c9cc(O)cc%10ccccc9%10)c(F)c8n7)CC6)CC5)CC4)ccc3C2=O)C(=O)N1 (centres unmarked) [Compound 52] | 100 to 1000 nM | < 100 nM | 
CN1C[C@H](C2CCC(C(=O)NCCOc3ccc4c(c3)C(=O)N(C3CCC(=O)NC3=O)C4=O)CC2)C[C@@H]1COc1nc(N2CC3CCC(C2)N3)c2cnc(-c3cc(O)cc4ccccc34)c(F)c2n1 (some centres unmarked) [Compound 53] | > 1000 nM | < 100 nM | 
CN1CC(N2CCC(C(=O)NCCOCCOc3ccc4c(c3)C(=O)N(C3CCC(=O)NC3=O)C4=O)CC2)C[C@@H]1COc1nc(N2CC3CCC(C2)N3)c2cnc(-c3cc(O)cc4ccccc34)c(F)c2n1 (some centres unmarked) [Compound 54] | > 1000 nM | < 100 nM | 
C#Cc1cccc2cccc(-c3ncc4c(N5CC6CCC(C5)N6)nc(OC[C@H]5CC[C@@H](CN6CCN(CC7CCN(c8cc9c(cc8F)C(=O)N(C8CCC(=O)NC8=O)C9=O)CC7)CC6)N5C)nc4c3F)c12 (some centres unmarked) [Compound 55] | > 1000 nM | < 100 nM | 
Cc1cccc2cccc(-c3ncc4c(N5CC6CCC(C5)N6)nc(OCC5(CN6CCN(CC7CCN(c8ccc9c(c8)C(=O)N(C8CCC(=O)NC8=O)C9=O)CC7)CC6)CC5)nc4c3F)c12 (centres unmarked) [Compound 58] |  | < 100 nM | 
CN1[C@@H](COc2nc(N3CC4CCC(C3)N4)c3cnc(-c4cc(O)cc5ccccc45)c(F)c3n2)CC[C@H]1CN1CCN(CC2CCN(c3ccc4c(c3)C(=O)N(C3CCC(=O)NC3=O)C4=O)CC2)CC1 (some centres unmarked) [Compound 60] | > 1000 nM | < 100 nM | 
C#Cc1cccc2cc(O)cc(-c3ncc4c(N5CC6CCC(C5)N6)nc(OCC5(CN6CCN(Cc7ccc8c(c7)CN(C7CCC(=O)NC7=O)C8=O)CC6)CC5)nc4c3F)c12 (centres unmarked) [Compound 61] | 100 to 1000 nM | < 100 nM | 
C#Cc1cccc2cccc(-c3ncc4c(N5CC6CCC(C5)N6)nc(OC[C@H]5CC[C@@H](CN6CCN(CCC7CCN(c8ccc9c(c8)C(=O)N(C8CCC(=O)NC8=O)C9=O)CC7)CC6)N5C)nc4c3F)c12 (some centres unmarked) [Compound 62] | 100 to 1000 nM | < 100 nM | 
Cc1cccc(-c2ncc3c(N4CC5CCC(C4)N5)nc(OCC4(CN5CCN(CC6CCN(c7ccc8c(c7)C(=O)N(C7CCC(=O)NC7=O)C8=O)CC6)CC5)CC4)nc3c2F)c1C (centres unmarked) [Compound 63] | > 1000 nM | < 100 nM | 
C#Cc1c(F)ccc2cc(O)cc(-c3ncc4c(N5CC6CCC(C5)N6)nc(OCC5(CN6CCN(Cc7ccc8c(c7)C(=O)N(C7CCC(=O)NC7=O)C8=O)CC6)CC5)nc4c3F)c12 (centres unmarked) [Compound 64] | > 1000 nM | < 100 nM | 
C#Cc1cccc2cc(O)cc(-c3ncc4c(N5CC6CCC(C5)N6)nc(OCC5(CN6CCN(Cc7ccc8c(c7)C(=O)N(C7CCC(=O)NC7=O)C8=O)CC6)CC5)nc4c3F)c12 (centres unmarked) [Compound 65] | > 1000 nM | < 100 nM | 
C#Cc1cccc2cccc(-c3ncc4c(N5CC6CCC(C5)N6)nc(OCC5(CN(C)CC6CCN(c7ccc8c(c7)C(=O)N(C7CCC(=O)NC7=O)C8=O)CC6)CC5)nc4c3F)c12 (centres unmarked) [Compound 67] | 100 to 1000 nM | < 100 nM | 
C#Cc1cccc2cc(O)cc(-c3ncc4c(N5CC6CCC(C5)N6)nc(OC[C@H]5CC[C@@H](CN6CCN(CC7CCN(c8ccc9c(c8)C(=O)N(C8CCC(=O)NC8=O)C9=O)CC7)CC6)N5C)nc4c3F)c12 (some centres unmarked) [Compound 68] | > 1000 nM | < 100 nM | 
C#Cc1cccc2cc(O)cc(-c3ncc4c(N5CC6CCC(C5)N6)nc(OC[C@H]5CC[C@@H](CN6CCN(CC7CCN(c8ccc9c(c8)CN(C8CCC(=O)NC8=O)C9=O)CC7)CC6)N5C)nc4c3F)c12 (some centres unmarked) [Compound 69] | > 1000 nM | < 100 nM | 

SMILES | IC50 [1] | IC50 (KRAS(G12D)/SOS1) | IC50 [2]
COc1cc(-c2ncc3c(N4CC5CCC(C4)N5)nc(OCC4(CN5CCN(CC6CCN(c7ccc8c(c7)CN(C7CCC(=O)NC7=O)C8=O)CC6)CC5)CC4)nc3c2F)c2ccccc2c1 (centres unmarked) [Compound 70] | > 1000 nM | > 1000 nM | 
C#Cc1cccc2cccc(-c3ncc4c(N5CC6CCC(C5)N6)nc(OC[C@H]5C[C@@H](N6CCN(CCC7CCN(c8ccc9c(c8)C(=O)N(C8CCC(=O)NC8=O)C9=O)CC7)CC6)CN5C)nc4c3F)c12 (some centres unmarked) [Compound 74] | > 1000 nM | < 100 nM | 
CN(CC1CCN(c2ccc3c(c2)C(=O)N(C2CCC(=O)NC2=O)C3=O)CC1)CC1(COc2nc(N3CC4CCC(C3)N4)c3cnc(-c4cc(O)cc5ccccc45)c(F)c3n2)CC1 (centres unmarked) [Compound 75] | > 1000 nM | < 100 nM | 
O=C1CCC(N2C(=O)c3ccc(N4CCN(C(=O)C5CCN(CC6(COc7nc(N8CC9CCC(C8)N9)c8cnc(-c9cc(O)cc%10ccccc9%10)c(F)c8n7)CC6)CC5)CC4)cc3C2=O)C(=O)N1 (centres unmarked) [Compound 76] | > 1000 nM | < 100 nM | 
C#Cc1cccc2cc(O)cc(-c3ncc4c(N5CC6CCC(C5)N6)nc(OCC5(CN6CCN(CC7CCN(CC(=O)N[C@@H](C(=O)N8C[C@@H](O)C[C@@H]8C(=O)NCc8ccc(-c9scnc9C)cc8)C(C)(C)C)CC7)CC6)CC5)nc4c3F)c12 [Compound 82] | > 1000 nM |  | > 1000 nM
C#Cc1cccc2cc(O)cc(-c3ncc4c(N5CC6CCC(C5)N6)nc(OCC5(CN6CCN(C(=O)N7CCN(c8ccc9c(c8)CN(C8CCC(=O)NC8=O)C9=O)CC7)CC6)CC5)nc4c3F)c12 (centres unmarked) [Compound 88] | > 1000 nM |  | 100 to 1000 nM
C#Cc1c(F)ccc2cc(O)cc(-c3ncc4c(N5CC6CCC(C5)N6)nc(OCC5(CN(C)CC6CCN(c7ccc8c(c7)C(=O)N(C7CCC(=O)NC7=O)C8)CC6)CC5)nc4c3F)c12 (centres unmarked) [Compound 89] | > 1000 nM |  | > 1000 nM
C#Cc1cccc2cc(O)cc(-c3ncc4c(N5CC6CCC(C5)N6)nc(OCC5(CN6CCN(CC7CCN(c8cc9c(cc8F)C(=O)N(C8CCC(=O)NC8=O)C9)CC7)CC6)CC5)nc4c3F)c12 (centres unmarked) [Compound 90] | < 100 nM |  | < 100 nM
C#Cc1cccc2cc(O)cc(-c3nc(OC)c4c(N5CC6CCC(C5)N6C)nc(OCC5(CN6CCN(CC7CCN(c8ccc9c(c8)CN(C8CCC(=O)NC8=O)C9=O)CC7)CC6)CC5)nc4c3F)c12 (centres unmarked) [Compound 105] |  | < 100 nM | > 1000 nM
C#Cc1c(F)ccc2cc(O)cc(-c3nc(OC)c4c(N5CCN(C)[C@@H](CC#N)C5)nc(OCC5(CN6CCN(CC7CCN(c8ccc9c(c8)CN(C8CCC(=O)NC8=O)C9=O)CC7)CC6)CC5)nc4c3F)c12 (some centres unmarked) [Compound 106] |  | < 100 nM | > 1000 nM
C#Cc1c(F)ccc2cc(O)cc(-c3ncc4c(N5CC6CCC(C5)N6C(=O)C(F)(F)F)nc(OCC5(CN6CCN(CC7CCN(c8ccc9c(c8)CN(C8CCC(=O)NC8=O)C9=O)CC7)CC6)CC5)nc4c3F)c12 (centres unmarked) [Compound 108] |  | < 100 nM | 
C#Cc1c(F)ccc2cc(O)cc(-c3ncc4c(N5CCN(C(=O)C=C)[C@@H](CC#N)C5)nc(OCC5(CN6CCN(CC7CCN(c8ccc9c(c8)CN(C8CCC(=O)NC8=O)C9=O)CC7)CC6)CC5)nc4c3F)c12 (some centres unmarked) [Compound 109] |  | < 100 nM | 
C#Cc1c(F)ccc2cc(O)cc(-c3ncc4c(N5CC6CCC(C5)N6C(=O)CC#N)nc(OCC5(CN6CCN(CC7CCN(c8ccc9c(c8)CN(C8CCC(=O)NC8=O)C9=O)CC7)CC6)CC5)nc4c3F)c12 (centres unmarked) [Compound 110] |  | < 100 nM | 
C#Cc1c(F)ccc2cc(O)cc(-c3ncc4c(N5CC6CCC(C5)N6)nc(OCC5(CN6CCC(CN7CCC(c8ccc(NC9CCC(=O)NC9=O)cc8)CC7)CC6)CC5)nc4c3F)c12 (centres unmarked) [Compound 113] |  | < 100 nM | 
C#Cc1c(F)ccc2cc(O)cc(-c3ncc4c(N5CC6CCC(C5)N6)nc(OCC5(CN6CCC7(CC6)CCN(c6ccc8c(c6)CN(C6CCC(=O)NC6=O)C8=O)CC7)CC5)nc4c3F)c12 (centres unmarked) [Compound 114] |  | < 100 nM | 
C#Cc1c(F)ccc2cc(O)cc(-c3nc(OC)c4c(N5CC6CCC(C5)N6)nc(OCC5(CN6CCN(C7CCN(c8ccc9c(c8)C(=O)N(C8CCC(=O)NC8=O)C9=O)CC7)CC6)CC5)nc4c3F)c12 (centres unmarked) [Compound 115] |  | < 100 nM | 
C#Cc1c(F)ccc2cc(O)cc(-c3ncc4c(N5CC6CCC(C5)N6)nc(OCC5(CN6CCC7(CC6)CN(c6ccc8c(c6)CN(C6CCC(=O)NC6=O)C8=O)C7)CC5)nc4c3F)c12 (centres unmarked) [Compound 116] |  | < 100 nM | 
C#Cc1c(F)ccc2cc(O)cc(-c3ncc4c(N5CC6CCC(C5)N6)nc(OCC5(CN6CC7(C6)CN(c6ccc8c(c6)CN(C6CCC(=O)NC6=O)C8=O)C7)CC5)nc4c3F)c12 (centres unmarked) [Compound 117] |  | < 100 nM | 
